Data set [1] concerns ASPC-1 pancreatic cancer cells. Nature of the data set: MTS viability assay on ASPC-1 pancreatic cancer cells. The data set is classed as cell-based, human. As to conditions: 48 h or 72 h continuous treatment, ESC8 5 μM. How it is done:
Cells were treated for 48 h with a) DX-ESC8+NRP-1 ShRNA plasmid, b) DX-ESC8+control plasmid, c) DO-ESC8+NRP-1 ShRNA plasmid, d) DX+NRP-1 ShRNA plasmid, followed by ESC8 treatment e) ESC8, as free drug at the drug concentration of 5 μM in either naked or respective formulated state. The % of viabilities of treated cells (Y-axis) were calculated with respect to untreated cells [* denotes p<0.01 between DX-ESC8 lipoplex groups with other groups].
Cells were treated for 72 h with a) DX-ESC8+NRP-1 ShRNA plasmid, b) DX-ESC8+control plasmid, c) DX+NRP-1 ShRNA plasmid, d) DO+NRP-1 ShRNA plasmid e) ESC8, as free drug at the drug concentration of 5 μM in either naked or respective formulated state. For groups c and d the liposome concentrations of DX or DO were equivalent to the corresponding liposome concentration in DX-ESC8 containing 5 μM ESC8. The % of viabilities of treated cells (Y-axis) were calculated with respect to untreated cells [* denotes p<0.01 between DX-ESC8 lipoplex groups or DX+NRP-1 ShRNA plasmid group with other groups].
Cancer cells (ANV-1, PANC-1, ASPC-1) were inoculated at a concentration of 5000 cells/well of 96-well cell culture plates in 10% Fetal Calf serum (FCS) containing DMEM media. […]

In data set [2] the test system is PANC-1 pancreatic cancer cells. Nature of the data set: MTS viability assay on PANC-1 pancreatic cancer cells. The format is cell-based, human. As to conditions: 48 h, ESC8 5 or 2.5 μM. How it is done:
Cells were treated for 48 h with a) DX-ESC8+NRP-1 ShRNA plasmid, b) DX-ESC8+control plasmid, c) DO-ESC8+NRP-1, d) DO-ESC8+control plasmid e) ESC8, as free drug at the drug concentrations of 5 or 2.5 μM in either naked or respective formulated state. The % of viabilities of treated cells (Y-axis) were calculated with respect to untreated cells [* denotes p<0.01 between DX-ESC8 lipoplex groups with other groups].
(§1) Cancer cells (ANV-1, PANC-1, ASPC-1) were inoculated at a concentration of 5000 cells/well of 96-well cell culture plates in 10% Fetal Calf serum (FCS) containing DMEM media. Following an incubation of minimum of 16 h at 37° C., the cells were treated in triplicate with respective lipoplexes (DX-ESC8, DO-ESC8, DX,) pre-complexed with 0.3 μg of NRP-1 or control plasmid amounts per well as discussed in Example 1. The cells were also treated with naked liposomes with or without ESC8 or free drug, ESC8, in a final volume of 300 μl (volume made up with 10% FCS containing DMEM media) continuously for 48 h (mostly) or 72 h. […] Thereafter cells were assayed for viability using MTS assay kit (Promega) following manufacturer's protocol.

In data set [3] the test system is ANV-1 breast cancer cells with CSC-like property. The data set can be described thus: MTS viability assay on ANV-1 breast cancer cells. The format is cell-based, mouse. The procedure:
The % of viabilities of treated cells (Y-axis) were calculated with respect to untreated cells [* denotes p<0.001 between DX-ESC8+NRP-1 group with other groups]
Cells were treated with a) DX-nutilin+NRP-1 ShRNA plasmid, b) DX-nutilin+control plasmid, c) DX+NRP-1 ShRNA plasmid, d) nutilin as free drug. The treatments were done in two different conditions, a) continuous treatment for 48 h by the respective formulations with […] effective nutilin concentration; b) treatment for only 4 h by respective formulations with […] effective nutilin concentrations. The % viabilities of treated cells (Y-axis) were calculated with respect to untreated cells.
as §1
For cells treated with DX-nutilin, the test solutions were: a) DX-nutilin pre-complexed with 0.3 µg of NRP-1 Sh-RNA plasmid, b) […] pre-complexed with 0.3 µg control plasmid, c) DX liposome pre-complexed with 0.3 µg NRP-1 Sh-RNA plasmid, d) only […] addition.
In general terms: Tetrazolium assays rely on reduction of a dye to a coloured formazan, in cell work by metabolically active cells.

We go through 1 molecule from patent US9861653B2, “Synergistic anti-cancer composition and a process for the preparation thereof” (Council of Scientific and Industrial Research, priority 2012, dated 2018).

SMILES strings stand for the structures. Entries after “also recorded” stand apart in the source; their conditions may differ.

For the molecule `CCCCCCCC[N+](C)(CCCCCCCC)CCC[C@]1(O)CC[C@H]2[C@@H]3CCc4cc(O)ccc4[C@H]3CC[C@@]21C` [ESC8, 17-α-[3-(N,N-dioctyl,N-methyl-amino)-propan-1-yl]-17β-estradiol], in data set [1], the “killing / anticancer effect on ASPC-1 cells” value is reported as “no anticancer effect; also recorded: least toxic effect”. In addition, in data set [2], the “anti-cancer effect on PANC-1 cells” value is reported as “no anticancer effect; also recorded: no toxicity”. Also, in data set [3] (48 h, ESC8 10 or 5 μM naked or formulated (FIG. 1)), the “anticancer effect towards ANV-1 breast cancer cells” value is reported as “very limited effect; also recorded: least anticancer effect”. For the same molecule, the “viability of ANV-1 cells” value in data set [3] (48 h treatment, drug concentration 10 or 5 μM, with respect to untreated cells (FIG. 1)) is 60-70%. For the same molecule, the “ESC8 free drug concentration needed to get 95-100% of ANV-1 cell killing” value in data set [3] (72 h treatment) is given as “at least 50 μM”. Also, the “visual effect on ANV-1 cells” value in data set [3] (shorter treatment time) is given as “no visual effect”.
